Measured values: ChEMBL document CHEMBL1201862, “PubChem BioAssay data set” (2004)
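Step 1: Grow cells in 96-well plates. Step 2: Expose to compound for 48 hours at 5 concentrations. Step 3: Interpolate endpoints linearly; if unreached, use highest concentration. GI50: concentration for 50% inhibition of growth.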 Activity calls are given as the source filed them. Rule as the data show it: active = GI50 up to about 1.1 µM and inactive = higher.

Columns and labels:
Assay in all cases: DTP human tumour cell line panel, 48 h
[1] = system: A549
[2] = system: COLO 205
[3] = system: DU-145
[4] = system: HCC 2998
[5] = system: HOP-62
[6] = system: HT-29
[7] = system: Hs-578T
[8] = system: KM12
[9] = system: LOX IMVI
[10] = system: M14
[11] = system: MCF7
[12] = system: NCI-H522
[13] = system: OVCAR-4
[14] = system: OVCAR-5
[15] = system: OVCAR-8
[16] = system: PC-3
[17] = system: RPMI-8226
[18] = system: SF-268
[19] = system: SK-OV-3
[20] = system: SR

SMILES | GI50 [1] | GI50 [2] | GI50 [3] | GI50 [4] | GI50 [5] | GI50 [6] | GI50 [7] | GI50 [8] | GI50 [9] | GI50 [10] | GI50 [11] | GI50 [12] | GI50 [13] | GI50 [14] | GI50 [15] | GI50 [16] | GI50 [17] | GI50 [18] | GI50 [19] | GI50 [20]
N=C(N)NS(=O)(=O)c1ccc(Nc2c3ccccc3nc3ccc(C(=O)Nc4ccc(S(N)(=O)=O)cc4)cc23)cc1 | > 100 µM (inactive) | > 100 µM (inactive) | > 100 µM (inactive) | > 100 µM (inactive) | > 100 µM (inactive) | > 100 µM (inactive) | > 100 µM (inactive) | > 100 µM (inactive) | > 100 µM (inactive) | > 100 µM (inactive) | > 100 µM (inactive) | > 100 µM (inactive) | > 100 µM (inactive) | > 100 µM (inactive) | > 100 µM (inactive) | > 100 µM (inactive) | > 100 µM (inactive) | > 100 µM (inactive) | > 100 µM (inactive) | > 100 µM (inactive)
O=C(O)c1cc(O)c2c(c1)C([C@@H]1c3cccc(O)c3C(=O)c3c(O)cc(C(=O)O)cc31)c1cccc(O)c1C2=O (stereo not given in full) | > 100 µM (inactive) | > 100 µM (inactive) | > 100 µM (inactive) | 47.4 µM (inactive) | > 10 µM (inactive) | 96.2 µM (inactive) | 24.9 µM (inactive) | 20.5 µM (inactive) | 15.8 µM (inactive) | > 10 µM (inactive) | 37 µM (inactive) | 19.7 µM (inactive) | > 100 µM (inactive) | > 100 µM (inactive) | 33.4 µM (inactive) | 36.1 µM (inactive) | 32.9 µM (inactive) | 31.4 µM (inactive) | > 100 µM (inactive) | 39.3 µM (inactive)
CN1CCC(OC(=O)Oc2ccccc2)(c2ccccc2)CC1 | 38.2 µM (inactive) | 12.5 µM (inactive) | 47.1 µM (inactive) | 19.6 µM (inactive) | 15.5 µM (inactive) | 4.51 µM (inactive) | 28.5 µM (inactive) | 17.9 µM (inactive) | 17.8 µM (inactive) | 15 µM (inactive) | 20 µM (inactive) | 24 µM (inactive) | 18.3 µM (inactive) | 25.4 µM (inactive) | 17.5 µM (inactive) | 18 µM (inactive) | 15.5 µM (inactive) | 37.1 µM (inactive) | 24.9 µM (inactive) | 15.9 µM (inactive)
COc1ccc(-n2cnc3c(NCC(=O)O)ncnc32)cc1 | > 100 µM (inactive) | > 100 µM (inactive) | > 100 µM (inactive) | > 100 µM (inactive) | > 100 µM (inactive) | > 100 µM (inactive) | > 100 µM (inactive) | > 100 µM (inactive) | > 100 µM (inactive) | > 100 µM (inactive) | > 100 µM (inactive) | > 100 µM (inactive) | > 100 µM (inactive) | > 100 µM (inactive) | > 100 µM (inactive) | > 100 µM (inactive) | > 100 µM (inactive) | > 100 µM (inactive) | > 100 µM (inactive) | > 100 µM (inactive)
Cc1ccc(N(C)S(=O)(=O)c2ccc([N+](=O)[O-])cc2)cc1 | > 100 µM (inactive) | > 100 µM (inactive) | > 100 µM (inactive) | 93.5 µM (inactive) | > 100 µM (inactive) | 74.6 µM (inactive) | > 100 µM (inactive) | 74.6 µM (inactive) | > 100 µM (inactive) | 49.8 µM (inactive) | > 100 µM (inactive) | > 100 µM (inactive) | > 100 µM (inactive) | > 100 µM (inactive) | > 100 µM (inactive) | 34.4 µM (inactive) | 59 µM (inactive) | > 100 µM (inactive) | > 100 µM (inactive) | 78.2 µM (inactive)
CC(C)(C)OC(=O)NC1CC=CCC1NC(=O)OC(C)(C)C (stereo not given) | > 100 µM (inactive) | > 100 µM (inactive) | > 100 µM (inactive) | > 100 µM (inactive) | > 100 µM (inactive) | > 100 µM (inactive) | > 100 µM (inactive) | > 100 µM (inactive) | > 100 µM (inactive) | > 100 µM (inactive) | > 100 µM (inactive) | > 100 µM (inactive) | > 100 µM (inactive) | > 100 µM (inactive) | > 100 µM (inactive) | > 100 µM (inactive) | > 100 µM (inactive) | > 100 µM (inactive) | > 100 µM (inactive) | > 100 µM (inactive)
Cc1cc(C)c2c(=O)n(CC(O)CN(Cc3ccccc3)CC(O)Cn3sc4nc(C)cc(C)c4c3=O)sc2n1 (stereo not given) | 19.9 µM (inactive) | 7.73 µM (inactive) | 17.9 µM (inactive) | 18.8 µM (inactive) | 14.4 µM (inactive) | 19.6 µM (inactive) | 18.9 µM (inactive) | 17.2 µM (inactive) | 19.2 µM (inactive) | 17.4 µM (inactive) | 17.6 µM (inactive) | 10 µM (inactive) | 18.1 µM (inactive) | 20.1 µM (inactive) | 18.9 µM (inactive) | 16.8 µM (inactive) | 3.61 µM (inactive) | 17.1 µM (inactive) | 23.2 µM (inactive) | 8.99 µM (inactive)
O=C1C(Cl)C(c2cc3cc(Br)ccc3nc2Cl)N1c1ccc(F)c(Cl)c1 (stereo not given) | 12.6 µM (inactive) | 6.62 µM (inactive) | 8.02 µM (inactive) | 11.7 µM (inactive) | 1.76 µM (inactive) | 10.7 µM (inactive) | 20.1 µM (inactive) | 3.21 µM (inactive) | 0.055 µM (active) | 9.42 µM (inactive) | 5.96 µM (inactive) | 0.275 µM (active) | 1.76 µM (inactive) | 12 µM (inactive) | 6.14 µM (inactive) | 3.59 µM (inactive) | 1.36 µM (inactive) | 2.99 µM (inactive) | 6.75 µM (inactive) | 1.03 µM (active)
O=C(Nc1c(C(F)(F)F)cc(-c2ccccc2)[nH]c1=O)N1CCOCC1 | 79.1 µM (inactive) | > 100 µM (inactive) | > 100 µM (inactive) | > 100 µM (inactive) | > 100 µM (inactive) | > 100 µM (inactive) | > 100 µM (inactive) | > 100 µM (inactive) | > 100 µM (inactive) | > 100 µM (inactive) | > 100 µM (inactive) | 89.1 µM (inactive) | 47.8 µM (inactive) | > 100 µM (inactive) | > 100 µM (inactive) | > 100 µM (inactive) | 26.9 µM (inactive) | > 100 µM (inactive) | > 100 µM (inactive) | 54.3 µM (inactive)
Cc1nc2ccccc2c(=O)n1NC(=O)c1ccc(CS)cc1 | 7.48 µM (inactive) | 15.2 µM (inactive) | 28.1 µM (inactive) | 18.5 µM (inactive) | 18.8 µM (inactive) | 10.8 µM (inactive) | 16.6 µM (inactive) | 15.3 µM (inactive) | 0.145 µM (active) | 12.2 µM (inactive) | 5.64 µM (inactive) | 12.3 µM (inactive) | 15.1 µM (inactive) | 34.5 µM (inactive) | 20.8 µM (inactive) | 1.74 µM (inactive) | 11.1 µM (inactive) | 4.06 µM (inactive) | 17.8 µM (inactive) | 2.97 µM (inactive)
COc1ccccc1C1Nn2c(nc3ccccc3c2=O)N1c1ccc(C)cc1 (stereo not given) | 6.19 µM (inactive) | 6.65 µM (inactive) | 11 µM (inactive) | 3.8 µM (inactive) | 6.32 µM (inactive) | 7.78 µM (inactive) | 10 µM (inactive) | 11.2 µM (inactive) | 7.62 µM (inactive) | 10.5 µM (inactive) | 6.49 µM (inactive) | 7.8 µM (inactive) | 3.08 µM (inactive) | 10.4 µM (inactive) | 5.11 µM (inactive) | 2.71 µM (inactive) | 3.72 µM (inactive) | 6.85 µM (inactive) | 3.72 µM (inactive) | 1.38 µM (inactive)
O=C(O)CO/N=C1/C(=C2/C(=O)Nc3ccccc32)Nc2ccccc21 | > 100 µM (inactive) | 57.5 µM (inactive) | 44.3 µM (inactive) | 33.1 µM (inactive) | 86.3 µM (inactive) | 44.5 µM (inactive) | 29.6 µM (inactive) | 2.99 µM (inactive) | 28.4 µM (inactive) | 41.1 µM (inactive) | 36 µM (inactive) | 52.6 µM (inactive) | 48.5 µM (inactive) | > 100 µM (inactive) | > 100 µM (inactive) | 33.9 µM (inactive) | > 100 µM (inactive) | 35.7 µM (inactive) | 22.4 µM (inactive) | 39.5 µM (inactive)
